{"source": "patent US20150182525A1", "about": "“4-Amino-5-Fluoro-3-[6-(4-Methylpiperazin-1-YL)-1H-Benzimidazol-2-YL]-1H-Quinolin-2-one for use in the Treatment of Adenoid Cystic Carcinoma” (priority 2011, published 2015)", "key": {"[1]": {"system": "ACCx6 xenograft tumor line", "assay": "ACCx6 adenoid cystic carcinoma xenograft efficacy study in nude mice", "assay_type": "in vivo", "conditions": "50 mg/kg p.o. qd x28; D28; P<0.001 as compared to 5/10 mg/kg docetaxel monotherapy", "quoted_text": "The tumors are maintained by engraftment in nude mice. A 1 mm^3 fragment is implanted subcutaneously in the right flank of each test animal The tumors are measured with calipers twice weekly, and daily as the mean volume approached 100-150 mm^3 Seven days after tumor cell implantation, on D1 (day 1) of the study, the animals are sorted into groups of ten mice, with individual tumor sizes of 100-1250 mm^3 Tumor size, in mm^3, is calculated from\nwhere “w” is the width and “1” is the length, in mm, of the tumor. Tumor weight is estimated with the assumption that 1 mg is equivalent to 1 mm^3 of tumor volume. For the efficacy study dovitinib and its vehicle are each administered orally (p.o.), once daily for twenty eight consecutive days (qd x28). […] The dosing volume, 10 mL/kg (0.2 mL20 g mouse), is scaled to the weight of each animal as determined on the day of dosing, except on weekends when the previous BW was carried forward.\nThe study begins on Day 1 (D1). Efficacy is determined from tumor volume changes up to D28 (day 28). Efficacy is determined on D28.\nFor the purpose of statistical and graphical analyses, ΔTV, the difference in tumor volume between D1 (the start of dosing) and the endpoint day, was determined for each animal For each treatment group, the response on the endpoint day was calculated by the following relation: […]"}, "[2]": {"system": "ACCx5M1 xenograft tumor line", "assay": "ACCx5M1 adenoid cystic carcinoma xenograft tumor growth delay study in nude mice", "assay_type": "in vivo", "from_the_text": "The data set is comprised of the first observation that exceeded the study endpoint volume and the three consecutive observations that immediately preceded the attainment of the endpoint volume. The calculated TTE is usually less than the day on which an animal is euthanized for tumor size."}, "[3]": {"system": "Stage IV adenoid cystic carcinoma", "assay": "Dovitinib clinical trial, adenoid cystic carcinoma patient, radiologic imaging of target lesions", "assay_type": "in vivo, human", "method": "A patient with Stage IV adenoid cystic carcinoma was enrolled in a dovitinib clinical trial.\nThe patient was originally diagnosed 20 years ago with Stage II well differentiated ACC on the right cheek mucosa. Patient was previously treated using tumor resection of right cheek mucosa and right upper jaw and treated with radiation therapy, followed by chemotherapy with 5 FU (250 mg/m^2), ciplatin (40 mg/m^2), doxorubicin (20 or 27 mg/m^2) and cyclophosphamide (400 mg/m^2).\nRecurrence of ACC occurred […], and patient was again treated using surgery of right cheek and submandibular Lymph nodes. Patient was subsequently treated with radiation therapy and followed by chemotherapy (TS-1, 120 mg/day).\nPatient was enrolled into the dovitinib clinical trial and was treated with dovitinb 500 mg 5 days on 2 days off."}, "primary ACC xenografts": {"system": "primary ACC xenografts", "assay": "Tumor growth inhibition in primary ACC xenograft models", "assay_type": "in vivo, immunodeficient mice", "conditions": "FIGS. 6 and 7", "method": "Once confirmed, established ACC xenograft models were developed until growth characteristic stabilized at which point viable stocks were collected and banked. According to one embodiment, the efficacy of dovitinib was evaluated in inhibiting tumor growth in certain ACC xenografts."}, "[4]": {"conditions": "500 mg 5 days on 2 days off, after 1 cycle of treatment (4 weeks), one patient"}}, "note": "“Also recorded” adds a separate entry of the source."}
{"smiles": "CN1CCN(c2ccc3nc(-c4c(N)c5c(F)cccc5[nH]c4=O)[nH]c3c2)CC1", "note": "[dovitinib, 4-amino-5-fluoro-3-[6-(4-methylpiperazin-1-yl)-1H-benzimidazol-2-yl]-1H-quinolin-2-one]", "values": [{"measurement": "median growth inhibition (tumor volume)", "setting": "[1]", "value": "significant median growth inhibition"}, {"measurement": "survival extension", "setting": "[2]; 50 mg/kg monotherapy, Logrank test, P<0.05", "value": "significant"}, {"measurement": "% TGD (tumor growth delay)", "setting": "[2]; 50 mg/kg p.o. qd x64 monotherapy, study endpoint D64 or endpoint tumor volume", "value": 49, "unit": "%"}, {"measurement": "reduction of total diameter of target lesions", "setting": "[3]; [4]", "value": 26, "unit": "%"}, {"measurement": "reduction of tumor diameter on the right facial target lesion", "setting": "[3]; [4]", "value": 70, "unit": "%"}, {"measurement": "reducing ACC tumor growth in a human clinical trial", "setting": "[3]; after 1 cycle of treatment", "value": "surprisingly effective in reducing ACC tumor growth"}, {"measurement": "inhibiting tumor growth in primary ACC xenografts", "setting": "primary ACC xenografts", "value": "effective for inhibiting tumor growth; also recorded: surprisingly effective in inhibiting tumor"}]}
